This is an account of results in patent US8765707B2, “MicroRNA-140-5p as a tumor suppressor and sensitizing agent for chemotherapy” (University of Houston System, priority 2011, dated 2014).

The subject of one series is MYCN. Put plainly: MYCN induction in conditional MYCN3 cell line (QPCR). It counts as cell-based. Conditions: 1 ug/ml doxorubicin. As to the method:
In FIG. 1 using a conditional MYCN cells line MYCN3, neuroblastoma patients with high and low MYCN were simulated. […] Induced MYCN is functional as shown by alteration in cell cycle distribution 24 hours after exposure to doxorubicin. Chip-PCR results for E-boxes of two known MYCN target genes MIR17HG and MDM2 confirming the specificity of the immunoprecipitation and relative enrichment for MYCN target gene promoters.

Series [1] deals with CHLA255 neuroblastoma cell line. Kind of series: MTT proliferation assay in CHLA255 neuroblastoma cells. It counts as cell-based. Conditions: CHLA255 stable cell line expressing microRNA with GFP, compared to control cells. As to the method: (§1) […] sequences (SEQ ID NOS: 3-4), which mimic miR-140-5p wildtype (SEQ ID NO: 1) and mutant miR-140-5p (SEQ ID NO: 2), were transfected into CHLA255 neuroblastoma cell line upper-GFP vector. Table 1 identifies the nucleotide sequences of the wildtype and mutant microRNAs and their mimics. The altered nucleotides in the mutant sequences are shown in bold.
(§2) The impact of these sequences on these cells was measured by increase in absorbance from the MTT assay (FIG. 2A) and the ability to form colonies on a soft agar plate in a clonogenicity assay (FIG. 2B). Stable cell line expression of microRNAs with GFP were compared to control cells. […] Colony formation assays were carried out in soft agar-representative wells showing colony growth at 10 days. Colonies were stained and counted by eye or by digital image analysis software.

The test system is the same in series [2]. Kind of series: Soft agar colony formation (clonogenicity) assay. It counts as cell-based. Particulars: CHLA255, colony growth at 10 days, triplicate experiments. As to the method: as §1, §2
Series [3] relates to CHLA-255 neuroblastoma tumors. Kind of series: In vivo orthotopic xenograft model of neuroblastoma. On the set-up: species or system mouse. Particulars: tumors over-expressing miR-140-5p vs control CHLA-255; Kruskal-Wallis p<0.01; n=9.
Text: FIG. 3 illustrates the impact of miR-140-5p on in vivo orthotopic xenograft model of neuroblastoma. *Kruskal-Wallis method p<0.01; mean±SEM; n=9 in miR-140-5p cohort, n=10 in all other cohorts. Using the contralateral kidney (*) for comparison the average tumor weight for each cohort+SEM.

Entries after “also recorded” stand apart in the source; their conditions may differ.

As for `COc1cccc2c1C(=O)c1c(O)c3c(c(O)c1C2=O)C[C@@](O)(C(=O)CO)C[C@@H]3O[C@H]1C[C@H](N)[C@H](O)[C@H](C)O1` [doxorubicin], the “Increase in MYCN mRNA message level” value with MYCN is recorded as 20 fold.
As to “miR-140-5p: SEQ ID NO: 1, CAGUGGUUUUACCCUAUGGUAG (listed as RNA, chemistry not given here)”, the “Proliferation as measured by increase in absorbance from MTT assay” value in series [1] is “consistently decrease the proliferation rates; also recorded: significantly decreases the proliferation”. In series [2], the “Colony counts in soft agar” value is “significantly decrease colonies”. In addition, in series [3], the Average tumor weight result is “significantly smaller than control; also recorded: significantly suppresses in vivo tumor growth and burden”.
